Article doi:10.1101/2023.11.24.568596v1 (biorxiv, 2023)

What was measured:
Details in all cases: binder
AAK1 = AAK1 (Homo sapiens, UniProt Q2M2I8)
BIKE = BIKE (Homo sapiens, UniProt Q9NSY1)
CaMK2d = CaMK2d (Homo sapiens, UniProt Q13557)
CaMK4 = biological target: T1, CaMK4 (Homo sapiens, UniProt Q16566)
T1 sequence (Q16566 1-473): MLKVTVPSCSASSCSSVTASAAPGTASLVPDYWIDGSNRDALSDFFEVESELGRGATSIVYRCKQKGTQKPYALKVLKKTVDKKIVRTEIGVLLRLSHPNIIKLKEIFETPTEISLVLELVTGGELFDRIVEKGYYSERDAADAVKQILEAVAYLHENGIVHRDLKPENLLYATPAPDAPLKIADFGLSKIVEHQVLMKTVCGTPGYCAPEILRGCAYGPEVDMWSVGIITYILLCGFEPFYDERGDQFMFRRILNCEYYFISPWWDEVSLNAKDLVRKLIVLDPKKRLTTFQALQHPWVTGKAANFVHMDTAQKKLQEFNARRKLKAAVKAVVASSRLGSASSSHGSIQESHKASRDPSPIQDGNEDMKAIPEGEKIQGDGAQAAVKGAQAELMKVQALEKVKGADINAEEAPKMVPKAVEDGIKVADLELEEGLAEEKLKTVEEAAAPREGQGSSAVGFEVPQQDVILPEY

Erk3 = Erk3 (Homo sapiens, UniProt Q16659)
Erk3, sequence (Q16659 whole entry): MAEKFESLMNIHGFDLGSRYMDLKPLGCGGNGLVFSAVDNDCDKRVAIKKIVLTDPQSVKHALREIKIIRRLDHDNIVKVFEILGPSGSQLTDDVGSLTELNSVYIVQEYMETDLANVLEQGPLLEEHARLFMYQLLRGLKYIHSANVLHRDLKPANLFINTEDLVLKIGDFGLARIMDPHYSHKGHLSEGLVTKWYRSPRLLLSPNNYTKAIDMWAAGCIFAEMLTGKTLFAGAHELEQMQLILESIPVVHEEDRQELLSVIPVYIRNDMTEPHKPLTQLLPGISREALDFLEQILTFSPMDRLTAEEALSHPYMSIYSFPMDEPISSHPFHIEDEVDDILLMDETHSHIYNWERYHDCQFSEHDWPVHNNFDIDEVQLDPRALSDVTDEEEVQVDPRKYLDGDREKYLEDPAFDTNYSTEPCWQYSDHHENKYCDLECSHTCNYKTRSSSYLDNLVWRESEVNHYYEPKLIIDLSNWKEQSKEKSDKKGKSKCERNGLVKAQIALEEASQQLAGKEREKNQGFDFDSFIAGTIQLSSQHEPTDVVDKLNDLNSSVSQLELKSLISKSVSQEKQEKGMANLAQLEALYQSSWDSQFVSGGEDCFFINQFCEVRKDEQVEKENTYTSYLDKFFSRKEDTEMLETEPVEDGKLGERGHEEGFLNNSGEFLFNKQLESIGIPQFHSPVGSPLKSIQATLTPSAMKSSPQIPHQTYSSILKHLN

Erk7 = biological target: T2, Erk7 (Homo sapiens, UniProt Q8TD08)
T2 sequence (Q8TD08 1-544): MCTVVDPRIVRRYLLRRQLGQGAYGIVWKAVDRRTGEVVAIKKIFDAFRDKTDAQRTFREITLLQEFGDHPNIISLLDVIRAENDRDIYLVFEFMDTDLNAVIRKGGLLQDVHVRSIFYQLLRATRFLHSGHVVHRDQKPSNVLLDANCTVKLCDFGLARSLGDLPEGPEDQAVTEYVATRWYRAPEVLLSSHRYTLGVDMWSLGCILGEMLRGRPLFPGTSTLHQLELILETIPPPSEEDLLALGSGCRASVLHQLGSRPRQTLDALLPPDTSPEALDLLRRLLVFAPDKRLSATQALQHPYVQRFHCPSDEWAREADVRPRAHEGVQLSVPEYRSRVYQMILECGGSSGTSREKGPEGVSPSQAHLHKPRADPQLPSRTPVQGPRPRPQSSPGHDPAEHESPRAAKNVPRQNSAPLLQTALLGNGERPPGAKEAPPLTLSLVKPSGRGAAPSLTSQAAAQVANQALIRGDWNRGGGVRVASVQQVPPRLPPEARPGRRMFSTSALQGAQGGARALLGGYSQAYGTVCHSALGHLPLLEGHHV

JNK1 = JNK1 (Homo sapiens, UniProt P45983)
JNK1, sequence (P45983 whole entry): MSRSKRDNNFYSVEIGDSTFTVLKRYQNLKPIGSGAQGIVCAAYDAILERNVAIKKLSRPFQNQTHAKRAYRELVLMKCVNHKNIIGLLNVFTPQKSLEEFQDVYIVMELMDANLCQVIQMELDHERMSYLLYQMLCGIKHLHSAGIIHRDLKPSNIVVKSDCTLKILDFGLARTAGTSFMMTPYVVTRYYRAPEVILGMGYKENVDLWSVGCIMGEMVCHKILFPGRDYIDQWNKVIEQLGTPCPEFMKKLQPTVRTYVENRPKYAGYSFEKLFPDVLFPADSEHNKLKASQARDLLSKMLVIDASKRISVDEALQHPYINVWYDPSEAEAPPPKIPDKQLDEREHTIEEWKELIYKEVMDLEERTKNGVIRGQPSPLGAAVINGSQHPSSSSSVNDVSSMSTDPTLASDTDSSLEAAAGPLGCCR

MARK4 = biological target: T3, MARK4 (Homo sapiens, UniProt Q96L34)
T3 sequence (Q96L34 1-752): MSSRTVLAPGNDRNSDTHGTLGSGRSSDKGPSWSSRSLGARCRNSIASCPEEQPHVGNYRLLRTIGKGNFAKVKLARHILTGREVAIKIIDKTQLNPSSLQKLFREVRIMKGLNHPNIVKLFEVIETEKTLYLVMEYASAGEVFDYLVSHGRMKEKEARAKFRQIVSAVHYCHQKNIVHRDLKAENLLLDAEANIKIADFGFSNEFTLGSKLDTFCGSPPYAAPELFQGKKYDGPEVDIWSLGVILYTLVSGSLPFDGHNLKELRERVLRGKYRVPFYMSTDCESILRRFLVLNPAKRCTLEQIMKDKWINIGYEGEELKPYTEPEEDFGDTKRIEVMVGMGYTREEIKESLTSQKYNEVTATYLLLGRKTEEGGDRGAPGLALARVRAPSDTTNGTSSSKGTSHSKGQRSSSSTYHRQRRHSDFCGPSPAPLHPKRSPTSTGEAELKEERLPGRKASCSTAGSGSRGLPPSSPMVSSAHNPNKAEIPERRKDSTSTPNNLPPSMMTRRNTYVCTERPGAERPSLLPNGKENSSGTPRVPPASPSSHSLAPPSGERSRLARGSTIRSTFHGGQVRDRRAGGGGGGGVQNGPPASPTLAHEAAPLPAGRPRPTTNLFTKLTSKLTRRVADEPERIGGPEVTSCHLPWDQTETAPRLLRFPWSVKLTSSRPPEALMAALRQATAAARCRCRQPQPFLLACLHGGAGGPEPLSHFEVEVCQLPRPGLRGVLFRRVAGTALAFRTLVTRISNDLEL

MSK1b = MSK1b (Homo sapiens, UniProt O75582)
MSK1b, sequence (O75582 whole entry): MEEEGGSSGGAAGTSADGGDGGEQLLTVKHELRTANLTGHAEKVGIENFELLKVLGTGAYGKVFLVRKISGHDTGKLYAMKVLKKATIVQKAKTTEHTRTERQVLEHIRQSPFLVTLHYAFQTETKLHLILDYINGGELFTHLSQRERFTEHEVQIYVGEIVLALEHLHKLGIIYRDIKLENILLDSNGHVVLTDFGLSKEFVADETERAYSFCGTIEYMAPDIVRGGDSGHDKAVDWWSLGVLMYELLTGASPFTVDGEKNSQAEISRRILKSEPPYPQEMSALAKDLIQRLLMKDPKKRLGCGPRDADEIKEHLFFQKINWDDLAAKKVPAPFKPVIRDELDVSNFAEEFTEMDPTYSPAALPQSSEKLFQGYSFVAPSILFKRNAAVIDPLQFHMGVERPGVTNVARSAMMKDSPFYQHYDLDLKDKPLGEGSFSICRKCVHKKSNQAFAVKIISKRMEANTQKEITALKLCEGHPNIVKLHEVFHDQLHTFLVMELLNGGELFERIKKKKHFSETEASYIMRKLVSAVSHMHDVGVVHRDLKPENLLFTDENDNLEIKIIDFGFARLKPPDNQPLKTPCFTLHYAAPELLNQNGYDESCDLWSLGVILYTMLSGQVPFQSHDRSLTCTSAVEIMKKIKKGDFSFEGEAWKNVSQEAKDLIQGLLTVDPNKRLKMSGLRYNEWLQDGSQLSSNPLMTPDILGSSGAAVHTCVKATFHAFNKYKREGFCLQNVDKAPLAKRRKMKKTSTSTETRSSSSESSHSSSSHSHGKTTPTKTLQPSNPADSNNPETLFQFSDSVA

p38a = p38a (Homo sapiens, UniProt Q16539)
p38a, sequence (Q16539 whole entry): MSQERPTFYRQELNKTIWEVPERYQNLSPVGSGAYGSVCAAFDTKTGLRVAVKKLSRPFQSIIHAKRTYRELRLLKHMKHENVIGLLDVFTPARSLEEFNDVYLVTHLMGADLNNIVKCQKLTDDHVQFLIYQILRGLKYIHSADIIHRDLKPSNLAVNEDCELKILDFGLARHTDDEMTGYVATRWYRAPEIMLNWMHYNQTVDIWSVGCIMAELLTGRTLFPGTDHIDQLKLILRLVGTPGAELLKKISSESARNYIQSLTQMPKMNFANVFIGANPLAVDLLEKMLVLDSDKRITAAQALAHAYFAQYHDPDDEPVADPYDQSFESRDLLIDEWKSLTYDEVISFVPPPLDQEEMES

CaMK2d, sequence (Q13557 whole entry): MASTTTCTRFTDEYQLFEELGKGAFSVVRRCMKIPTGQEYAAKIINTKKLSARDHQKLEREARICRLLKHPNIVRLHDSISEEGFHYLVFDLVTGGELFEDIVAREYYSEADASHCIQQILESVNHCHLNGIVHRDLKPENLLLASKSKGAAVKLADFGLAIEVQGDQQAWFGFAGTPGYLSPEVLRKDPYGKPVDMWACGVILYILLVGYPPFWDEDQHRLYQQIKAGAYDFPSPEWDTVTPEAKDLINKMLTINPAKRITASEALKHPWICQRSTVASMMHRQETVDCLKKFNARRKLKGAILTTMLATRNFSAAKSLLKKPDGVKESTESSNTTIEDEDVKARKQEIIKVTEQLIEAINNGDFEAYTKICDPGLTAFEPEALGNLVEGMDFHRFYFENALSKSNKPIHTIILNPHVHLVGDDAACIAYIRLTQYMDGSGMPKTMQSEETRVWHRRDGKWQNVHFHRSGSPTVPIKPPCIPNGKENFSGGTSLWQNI
AAK1, sequence (Q2M2I8 whole entry): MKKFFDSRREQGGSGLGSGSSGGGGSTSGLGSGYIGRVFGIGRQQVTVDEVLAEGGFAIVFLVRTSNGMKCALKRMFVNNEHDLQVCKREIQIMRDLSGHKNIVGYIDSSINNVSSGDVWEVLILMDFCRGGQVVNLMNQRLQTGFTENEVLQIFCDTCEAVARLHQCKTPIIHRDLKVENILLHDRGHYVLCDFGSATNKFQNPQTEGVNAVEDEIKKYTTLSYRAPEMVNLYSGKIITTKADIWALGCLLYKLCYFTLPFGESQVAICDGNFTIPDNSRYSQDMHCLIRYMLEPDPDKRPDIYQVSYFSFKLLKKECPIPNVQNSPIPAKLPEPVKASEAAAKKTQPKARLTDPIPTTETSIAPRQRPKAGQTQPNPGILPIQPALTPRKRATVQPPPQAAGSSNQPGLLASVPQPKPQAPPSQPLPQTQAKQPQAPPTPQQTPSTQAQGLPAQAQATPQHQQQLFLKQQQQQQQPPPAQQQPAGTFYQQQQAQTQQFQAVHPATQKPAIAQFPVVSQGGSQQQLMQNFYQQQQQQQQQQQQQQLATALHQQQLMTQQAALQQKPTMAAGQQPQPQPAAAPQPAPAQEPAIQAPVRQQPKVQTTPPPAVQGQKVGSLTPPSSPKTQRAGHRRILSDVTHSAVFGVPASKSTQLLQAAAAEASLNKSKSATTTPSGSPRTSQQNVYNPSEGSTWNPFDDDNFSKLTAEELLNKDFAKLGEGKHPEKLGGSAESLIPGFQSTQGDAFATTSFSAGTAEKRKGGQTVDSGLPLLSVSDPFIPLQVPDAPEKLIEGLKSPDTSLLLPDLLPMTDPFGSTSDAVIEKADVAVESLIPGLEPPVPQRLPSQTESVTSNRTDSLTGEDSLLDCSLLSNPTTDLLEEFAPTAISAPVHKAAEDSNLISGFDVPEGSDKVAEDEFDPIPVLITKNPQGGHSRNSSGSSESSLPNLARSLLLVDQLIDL
BIKE, sequence (Q9NSY1 whole entry): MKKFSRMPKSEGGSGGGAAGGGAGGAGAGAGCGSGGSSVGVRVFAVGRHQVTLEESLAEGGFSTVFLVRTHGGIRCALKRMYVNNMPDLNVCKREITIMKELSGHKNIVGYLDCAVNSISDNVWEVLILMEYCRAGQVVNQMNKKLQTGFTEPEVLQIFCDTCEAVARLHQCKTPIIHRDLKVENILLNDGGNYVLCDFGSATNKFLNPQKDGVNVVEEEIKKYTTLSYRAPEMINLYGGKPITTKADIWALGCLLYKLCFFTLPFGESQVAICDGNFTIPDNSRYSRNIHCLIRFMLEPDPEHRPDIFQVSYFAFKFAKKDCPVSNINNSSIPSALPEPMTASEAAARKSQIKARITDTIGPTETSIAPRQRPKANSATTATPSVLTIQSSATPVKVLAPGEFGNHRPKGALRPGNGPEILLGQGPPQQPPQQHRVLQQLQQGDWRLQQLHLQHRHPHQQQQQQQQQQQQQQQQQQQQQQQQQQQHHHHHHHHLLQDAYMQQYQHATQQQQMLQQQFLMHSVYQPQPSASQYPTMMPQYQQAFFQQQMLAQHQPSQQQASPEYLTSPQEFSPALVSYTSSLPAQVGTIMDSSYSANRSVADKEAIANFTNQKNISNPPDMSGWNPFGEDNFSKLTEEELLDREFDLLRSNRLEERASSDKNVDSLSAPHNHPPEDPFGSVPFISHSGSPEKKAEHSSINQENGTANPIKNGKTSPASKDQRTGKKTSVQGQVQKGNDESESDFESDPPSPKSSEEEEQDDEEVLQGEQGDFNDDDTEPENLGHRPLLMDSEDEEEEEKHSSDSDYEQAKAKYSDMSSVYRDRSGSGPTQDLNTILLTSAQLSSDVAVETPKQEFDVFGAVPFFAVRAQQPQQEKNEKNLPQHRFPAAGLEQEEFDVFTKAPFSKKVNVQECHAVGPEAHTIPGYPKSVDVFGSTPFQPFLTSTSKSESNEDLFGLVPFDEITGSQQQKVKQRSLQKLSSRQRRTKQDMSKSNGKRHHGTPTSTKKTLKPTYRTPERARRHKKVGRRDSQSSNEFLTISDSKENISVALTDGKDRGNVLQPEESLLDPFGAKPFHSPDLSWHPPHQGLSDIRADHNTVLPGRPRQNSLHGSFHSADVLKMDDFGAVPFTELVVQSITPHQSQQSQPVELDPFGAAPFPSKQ

Cc1cccc(-c2ccc(-c3cc4cnc(Nc5ccc(F)c(CO)c5)nc4n(CCCCN)c3=O)c(Cl)c2)n1 [compound 33, 8-(4-Aminobutyl)-6-(2-chloro-4-(6-methylpyridin-2-yl)phenyl)-2-((4-fluoro-3-(hydroxymethyl)phenyl)amino)pyrido[2,3-d]pyrimidin-7(8H)-one]
dTm 33 (AAK1): 4.1 °C | dTm 33 (BIKE): 7.2 °C | dTm 33 (CaMK2d): -0.2 °C | dTm 33 (CaMK4): 5.2 °C | dTm 33 (Erk3): 0.9 °C | dTm 33 (Erk7): 1.6 °C | dTm 33 (JNK1): 2.2 °C | dTm 33 (MARK4): 10.3 °C | dTm 33 (MSK1b): 3.5 °C | dTm 33 (p38a): 4.7 °C

COc1ccc(O)c(Nc2ncc3cc(-c4ccc(-c5cccc(C)n5)cc4Cl)c(=O)n(CCCCN)c3n2)c1 [compound 34, 8-(4-Aminobutyl)-6-(2-chloro-4-(6-methylpyridin-2-yl)phenyl)-2-((2-hydroxy-5-methoxy-phenyl)amino)pyrido[2,3-d]pyrimidin-7(8H)-one]
dTm 34 (AAK1): 1.4 °C | dTm 34 (BIKE): 0.8 °C | dTm 34 (CaMK2d): -0.2 °C | dTm 34 (CaMK4): 3.9 °C | dTm 34 (Erk3): 0.7 °C | dTm 34 (Erk7): -0.4 °C | dTm 34 (JNK1): 1.8 °C | dTm 34 (MARK4): 4.6 °C | dTm 34 (MSK1b): 2.4 °C | dTm 34 (p38a): 3.0 °C

COc1cc(N2CCOCC2)ccc1Nc1ncc2cc(-c3ccc(-c4cccc(C)n4)cc3Cl)c(=O)n(CCCCN)c2n1 [compound 35, 8-(4-Aminobutyl)-6-(2-chloro-4-(6-methylpyridin-2-yl)phenyl)-2-((2-methoxy-4-morpholino-phenyl)amino)pyrido[2,3-d]pyrimidin-7(8H)-one]
dTm 35 (AAK1): 3.0 °C | dTm 35 (BIKE): 1.3 °C | dTm 35 (CaMK2d): -0.9 °C | dTm 35 (CaMK4): 5.7 °C | dTm 35 (Erk3): 0.6 °C | dTm 35 (Erk7): 1.1 °C | dTm 35 (JNK1): 4.7 °C | dTm 35 (MARK4): 6.6 °C | dTm 35 (MSK1b): 3.8 °C | dTm 35 (p38a): 3.8 °C

COc1cc(N2CCN(C)CC2)ccc1Nc1ncc2cc(-c3ccc(-c4cccc(C)n4)cc3Cl)c(=O)n(CCCCN)c2n1 [compound 36, 8-(4-Aminobutyl)-6-(2-chloro-4-(6-methylpyridin-2-yl)phenyl)-2-((2-methoxy-4-(4-methylpiperazin-1-yl)phenyl)amino)pyrido[2,3-d]pyrimidin-7(8H)-one]
dTm 36 (AAK1): 2.4 °C | dTm 36 (BIKE): 1.0 °C | dTm 36 (CaMK2d): -0.2 °C | dTm 36 (CaMK4): 3.2 °C | dTm 36 (Erk3): 0.5 °C | dTm 36 (Erk7): -0.5 °C | dTm 36 (JNK1): 1.7 °C | dTm 36 (MARK4): 7.4 °C | dTm 36 (MSK1b): 3.0 °C | dTm 36 (p38a): 3.7 °C
